Data published in US20250368640A1 (BIOFRONT LTD, priority 2022, published 2025).

Experiments:
HPK1 [1] = biological target: T1, HPK1 (Homo sapiens (Human), UniProt Q92918); assay: HPK1 enzyme inhibition assay (ADP-Glo); format: biochemical
Description: HPK1 Enzyme Inhibition Assay
The compound was dissolved in 100% DMSO at the concentration of 10 mM. The HPK1 protein was purchased from Signal Chem (M23-11G-10). 2.5 μL per well of 2×HPK1 protein was added to assay plate containing the test compound, centrifuged at 1500 rpm for 1 minute, and then incubated at 25° C. for 60 minutes. MBP protein was purchased from Signal Chem (M42-51N) and ATP was purchased from Promega (V9102). The two were added 2.5 μL per well mixture of 2×MBP (0.2 ug/ul) and ATP (20 μM), centrifuged at 1500 rpm for 1 minute, then incubated at 25° C. for 60 minutes. Then added 5 μL of ADP-Glo from Promega (V9102) to the assay plate and depleted the unconsumed ATP for 60 minutes. Then centrifuged at 1500 rpm for 1 minute and incubated at 25° C. for 60 minutes. Finally, 10 μL of the kinase assay reagent from Promega (V9102) was added to the assay plate to convert ADP to ATP, centrifuged at 1500 rpm for 1 minute, incubate at 25° C. for 40 minutes. After 40 minutes incubation, the […] was determined. Based on the results, the IC50 value of the compound was calculated.
Target sequence in this assay (Q92918 1-346 limits assumed): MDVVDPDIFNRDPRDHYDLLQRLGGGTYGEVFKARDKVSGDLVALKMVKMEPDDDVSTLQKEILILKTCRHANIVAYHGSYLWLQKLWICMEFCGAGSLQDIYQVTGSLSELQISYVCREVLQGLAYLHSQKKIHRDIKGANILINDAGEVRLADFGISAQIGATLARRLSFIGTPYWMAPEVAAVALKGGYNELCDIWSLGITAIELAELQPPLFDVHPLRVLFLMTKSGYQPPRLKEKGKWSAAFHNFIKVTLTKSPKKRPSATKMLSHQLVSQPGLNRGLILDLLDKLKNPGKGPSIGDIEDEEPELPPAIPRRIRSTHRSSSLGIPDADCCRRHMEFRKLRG

FLT3 = FLT3 degradation assay (western blot, MV-411 cells); format: cell-based, human; settings: protein degradation, class symbol, read-out: FLT3 DC50 (nM)/Dmax (%)
Description: (§1) MV-411 cells were cultured with medium (IMDM) prior to use. Cells were then incubated with a variety of concentrations of compound. After incubation, the cells were collected and lysed. The protein concentration was determined by BCA protein assay kit from Thermo (23227). The FLT3 protein level was determined by western blots, using anti-human FLT3 monoclonal antibody from CST (3462S). Proteins were loaded into each well of the pre-casting gels and subjected to electrophoretic separation by SDS-PAGE. The protein resolved by SDS-PAGE were transferred to PVDF, blocked by 5% skim milk, and probed with anti-human FLT3 antibody or -actin antibody from CST (3700S), using standard western blotting procedure.

Aurora A [2] = biological target: T2, Aurora A (Homo sapiens (Human), UniProt O14965); assay: Aurora A degradation assay (western blot); format: cell-based; settings: protein degradation, IMR32, Huh7 or HL-60 cells
Description: Aurora A Degradation Assay
as §1, with “IMR32” for “MV-411”, “cultured with medium (MEM), Huh7 cells were cultured with medium (DMEM) and HL-60 cells were culture” for “cultured”, “AURKA” for “FLT3”, “(14475S).” for “(3462S).”, “β-actin” for “-actin”, “(3700S) or COX IV antibody from CST (4850S),” for “(3700S),”

HPK1 [3] = biological target: T1, HPK1; assay: HPK1 degradation assay (western blot, human PBMC); format: cell-based; settings: protein degradation, human PBMC
Description: Frozen human PBMC were purchased from Shanghai OribioTech and recovered with culture medium (RMPI1640) prior to use. The cells were then incubated with a variety of concentrations of compound. After incubation, the cells were collected and lysed. The protein concentration was determined by BCA protein assay kit from Thermo (23227). The HPK1 protein level was determined by western blots, using anti-human HPK1 polyclonal antibody from CST (4472S). Proteins were loaded into each well of the pre-casting gels and subjected to electrophoretic separation by SDS-PAGE. The protein resolved by SDS-PAGE were transferred to PVDF, blocked by 5% skim milk, and probed with anti-human HPK1 antibody or β-actin antibody from CST (3700S), using standard western blotting procedure.
Target sequence in this assay (Q92918 whole entry): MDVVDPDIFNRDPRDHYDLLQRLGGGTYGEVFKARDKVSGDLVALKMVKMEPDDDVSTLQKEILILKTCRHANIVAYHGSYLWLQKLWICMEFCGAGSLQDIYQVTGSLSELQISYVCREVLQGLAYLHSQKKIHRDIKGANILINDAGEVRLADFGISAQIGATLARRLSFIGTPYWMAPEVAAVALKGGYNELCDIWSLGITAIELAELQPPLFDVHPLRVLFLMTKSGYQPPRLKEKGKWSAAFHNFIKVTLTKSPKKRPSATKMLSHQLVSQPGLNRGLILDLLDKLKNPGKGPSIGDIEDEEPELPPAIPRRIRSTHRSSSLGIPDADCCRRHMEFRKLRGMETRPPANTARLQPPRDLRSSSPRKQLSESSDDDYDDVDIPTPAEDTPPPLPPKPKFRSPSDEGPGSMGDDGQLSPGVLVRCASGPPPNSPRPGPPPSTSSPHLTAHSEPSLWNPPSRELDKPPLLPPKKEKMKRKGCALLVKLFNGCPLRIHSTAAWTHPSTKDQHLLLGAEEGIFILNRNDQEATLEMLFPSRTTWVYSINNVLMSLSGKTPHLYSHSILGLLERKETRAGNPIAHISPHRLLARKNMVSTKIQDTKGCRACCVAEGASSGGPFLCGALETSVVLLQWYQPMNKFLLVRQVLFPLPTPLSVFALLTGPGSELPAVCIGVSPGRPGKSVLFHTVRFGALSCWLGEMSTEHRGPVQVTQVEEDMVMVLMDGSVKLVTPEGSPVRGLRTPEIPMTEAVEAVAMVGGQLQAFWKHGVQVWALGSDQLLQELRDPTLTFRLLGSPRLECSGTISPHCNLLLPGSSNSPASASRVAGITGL

MEK 1/2 = MEK 1/2 degradation assay (western blot); format: cell-based, human; settings: protein degradation, MV-411 or IMR32 cells
Description: MEK 1/2 Degradation Assay
as §1, with “(IMDM) and IMR32 cells were cultured with medium (MEM)” for “(IMDM)”, “anti-human MEK 1/2 polyclonal” for “anti-human FLT3 monoclonal”, “CST (9122S).” for “CST (3462S).”, “anti-human MEK1/2” for “anti-human FLT3”, “or β-actin” for “or -actin”, “CST (3700S) and COX IV antibody from CST (4850S),” for “CST (3700S),”

FLT3-ITD = FLT3-ITD (Homo sapiens, UniProt P36888); assay: FLT3-ITD enzyme inhibition assay; format: biochemical; settings: enzyme inhibition
Description: FLT3-ITD Enzyme Inhibition Assay
The compound was dissolved in 100% DMSO at the concentration of 10 mM. The FLT3-ITD protein was purchased from Invitrogen (PV6191). 10 μL per well of 2.5×FLT3-ITD protein was added to assay plate containing the test compound, centrifuged at 1000 rpm for 1 minute, and then incubated at 25° C. for 10 minutes. Peptide 2 was purchased from GL Biochem (112394) and ATP was purchased from Promega (V9102). The two were added 15 μL per well mixture of 1.67× peptide 2 (final conc. is 3 μM) and ATP (final conc. is 97.2 μM), centrifuged at 1000 rpm for 1 minute, then incubated at 25° C. for 40 minutes. Then added 30 μL of stop buffer (100 mM HEPES pH7.5, 0.015% Brij-35, 0.2% Coating Reagent 3, 50 mM EDTA) to the assay plate and centrifuged at 1000 rpm for 1 minute. the product was determined. Based on the results, the IC50 value of the compound was calculated.

Aurora A [4] = biological target: T2, Aurora A; assay: Aurora A enzyme inhibition assay; format: biochemical
Description: Aurora A Enzyme Inhibition Assay
The compound was dissolved in 100% DMSO at the concentration of 10 mM. The Aurora A protein was purchased from Carna (05-101). 10 μL per well of 2.5×Aurora A protein was added to assay plate containing the test compound, centrifuged at 1000 rpm for 1 minute, and then incubated at 25° C. for 10 minutes. Peptide 21 was purchased from GL Biochem (116370) and ATP was purchased from Promega (V9102). The two were added 15 μL per well mixture of 1.67× peptide 21 (final conc. is 3 μM) and ATP (final conc. is 14.58 μM), centrifuged at 1000 rpm for 1 minute, then incubated at 25° C. for 40 minutes. Then added 30 μL of stop buffer (100 mM HEPES pH7.5, 0.015% Brij-35, 0.2% Coating Reagent 3, 50 mM EDTA) to the assay plate and centrifuged at 1000 rpm for 1 minute. the product was determined. Based on the results, the IC50 value of the compound was calculated.

T2 sequence (O14965 whole entry): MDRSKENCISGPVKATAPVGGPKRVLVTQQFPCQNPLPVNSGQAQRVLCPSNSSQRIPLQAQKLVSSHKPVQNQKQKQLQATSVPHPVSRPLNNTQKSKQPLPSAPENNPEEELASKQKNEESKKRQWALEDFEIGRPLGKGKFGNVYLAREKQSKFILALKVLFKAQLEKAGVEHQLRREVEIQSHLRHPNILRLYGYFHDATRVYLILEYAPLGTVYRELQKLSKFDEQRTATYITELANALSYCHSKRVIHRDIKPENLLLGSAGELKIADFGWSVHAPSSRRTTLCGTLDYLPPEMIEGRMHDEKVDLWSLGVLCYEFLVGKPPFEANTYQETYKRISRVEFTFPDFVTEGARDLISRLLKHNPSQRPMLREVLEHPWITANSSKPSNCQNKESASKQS
Chain of FLT3-ITD (P36888 whole entry, looked up, change not shown): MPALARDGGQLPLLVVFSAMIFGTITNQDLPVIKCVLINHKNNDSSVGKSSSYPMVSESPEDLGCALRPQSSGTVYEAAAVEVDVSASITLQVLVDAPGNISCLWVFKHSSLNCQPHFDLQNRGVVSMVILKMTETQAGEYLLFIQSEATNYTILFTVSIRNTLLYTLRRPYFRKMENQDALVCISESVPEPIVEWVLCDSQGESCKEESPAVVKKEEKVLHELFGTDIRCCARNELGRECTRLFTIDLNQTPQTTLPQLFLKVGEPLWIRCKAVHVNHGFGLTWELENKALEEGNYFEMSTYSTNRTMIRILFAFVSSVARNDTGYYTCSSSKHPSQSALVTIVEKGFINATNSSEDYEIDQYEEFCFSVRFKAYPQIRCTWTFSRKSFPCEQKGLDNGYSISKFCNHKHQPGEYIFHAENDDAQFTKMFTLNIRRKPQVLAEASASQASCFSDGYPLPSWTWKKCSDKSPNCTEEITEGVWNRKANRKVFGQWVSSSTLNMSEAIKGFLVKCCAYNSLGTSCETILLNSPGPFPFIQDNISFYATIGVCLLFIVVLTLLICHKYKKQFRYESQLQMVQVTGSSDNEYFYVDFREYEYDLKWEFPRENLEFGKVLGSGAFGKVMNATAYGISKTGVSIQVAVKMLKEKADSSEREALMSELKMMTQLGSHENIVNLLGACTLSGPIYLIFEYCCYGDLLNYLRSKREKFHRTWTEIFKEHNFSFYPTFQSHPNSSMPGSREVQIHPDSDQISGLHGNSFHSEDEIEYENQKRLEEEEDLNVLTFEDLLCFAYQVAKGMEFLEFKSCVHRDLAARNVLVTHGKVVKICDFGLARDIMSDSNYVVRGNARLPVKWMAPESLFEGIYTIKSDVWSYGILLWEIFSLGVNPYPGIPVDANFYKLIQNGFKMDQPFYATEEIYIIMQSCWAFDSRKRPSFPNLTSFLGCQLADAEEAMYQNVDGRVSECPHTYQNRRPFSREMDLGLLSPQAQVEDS

Question: Which results are given for CCc1c[nH]c2ncc(-c3cccc(N4CCCN(CCN5CCN(c6cc7c(cc6F)C(=O)N(C6CCC(=O)NC6=O)C7)CC5)C4=O)c3)c(Cl)c12 (stereo not shown) [Example 7, 3-(5-(4-(2-(3-(3-(4-chloro-3-ethyl-1H-pyrrolo [2,3-b]pyridin-5-yl)phenyl)-2-oxotetrahydropyrimidin-1 (2H)-yl)ethyl)piperazin-1-yl)-6-fluoro-1-oxoisoindolin-2-yl) piperidine-2,6-dione]?
Answer: IC50 (HPK1 [1]): 0.0105 µM; DC50 (FLT3): > 10000 nM; Aurora A Dmax (Aurora A [2]): 50%; DC50 (Aurora A [2]; read-out: Aurora A DC50): 0.005 µM; HPK1 Dmax (HPK1 [3]): 60%; DC50 (HPK1 [3]; read-out: HPK1 DC50): 0.012 µM; MEK 1/2 Dmax (MEK 1/2): 37%; DC50 (MEK 1/2; read-out: MEK 1/2 DC50): 0.264 µM; IC50 (FLT3-ITD): 0.0123 µM; IC50 (Aurora A [4]): 0.0106 µM
